ChEMBL document CHEMBL3044652, “Synthesis of novel 2-alkyl-4-substituted-amino-pyrazolo[3,4-d]pyrimidines as new leads for anti-bacterial and anti-cancer activity” (2013)

Assays:
Assay type in all cases: functional
Escherichia coli [1] = assay: Antibacterial activity against Escherichia coli NCIM 2803 at 20 ug/ml after 24 hr by agar diffusion method; settings: NCIM 2803, 24 h, read-out: IZ
Bacillus subtilis [2] = assay: Antibacterial activity against Bacillus subtilis NCIM 2545 at 20 ug/ml after 24 hr by agar diffusion method; settings: NCIM 2545, 24 h, read-out: IZ
Staphylococcus aureus [3] = assay: Antibacterial activity against Staphylococcus aureus NCIM 5021 at 20 ug/ml after 24 hr by agar diffusion method; settings: NCIM 5021, 24 h, read-out: IZ
[4] = tested on: Staphylococcus epidermidis; assay: Antibacterial activity against Staphylococcus epidermidis NCIM 2493 at 20 ug/ml after 24 hr by agar diffusion method; settings: NCIM 2493, 24 h, read-out: IZ
Escherichia coli [5] = assay: Antibacterial activity against Escherichia coli NCIM 2803 at 10 ug/ml after 24 hr by agar diffusion method; settings: NCIM 2803, 24 h, read-out: IZ
Bacillus subtilis [6] = assay: Antibacterial activity against Bacillus subtilis NCIM 2545 at 10 ug/ml after 24 hr by agar diffusion method; settings: NCIM 2545, 24 h, read-out: IZ
Staphylococcus aureus [7] = assay: Antibacterial activity against Staphylococcus aureus NCIM 5021 at 10 ug/ml after 24 hr by agar diffusion method; settings: NCIM 5021, 24 h, read-out: IZ
[8] = tested on: Staphylococcus epidermidis; assay: Antibacterial activity against Staphylococcus epidermidis NCIM 2493 at 10 ug/ml after 24 hr by agar diffusion method; settings: NCIM 2493, 24 h, read-out: IZ
G-361 [9] = assay: Cytotoxicity against Homo sapiens (human) G361 cells assessed as cell growth at 10^-7 M by SRB assay relative to control; settings: read-out: Activity
G-361 [10] = assay: Cytotoxicity against Homo sapiens (human) G361 cells assessed as cell growth at 10^-6 M by SRB assay relative to control; settings: read-out: Activity
G-361 [11] = assay: Cytotoxicity against Homo sapiens (human) G361 cells assessed as cell growth at 10^-5 M by SRB assay relative to control; settings: read-out: Activity
G-361 [12] = assay: Cytotoxicity against Homo sapiens (human) G361 cells assessed as cell growth at 10^-4 M by SRB assay relative to control; settings: read-out: Activity
G-361 [13] = assay: Cytotoxicity against Homo sapiens (human) G361 cells by SRB assay

| SMILES | zone of inhibition at 20 µg/mL (Escherichia coli [1]) [mm] | zone of inhibition at 20 µg/mL (Bacillus subtilis [2]) [mm] | zone of inhibition at 20 µg/mL (Staphylococcus aureus [3]) [mm] | zone of inhibition at 20 µg/mL [4] [mm] | zone of inhibition at 10 µg/mL (Escherichia coli [5]) [mm] | zone of inhibition at 10 µg/mL (Bacillus subtilis [6]) [mm] | zone of inhibition at 10 µg/mL (Staphylococcus aureus [7]) [mm] | zone of inhibition at 10 µg/mL [8] [mm] | growth at 0.1 µM (G-361 [9]) [%] | growth at 1 µM (G-361 [10]) [%] | growth at 10 µM (G-361 [11]) [%] | growth at 100 µM (G-361 [12]) [%] | GI50 (G-361 [13]) [µM] | LC50 (G-361 [13]) [µM] | TGI (G-361 [13]) [µM] |
| --- | --- | --- | --- | --- | --- | --- | --- | --- | --- | --- | --- | --- | --- | --- | --- |
| CC1(C)S[C@@H]2[C@H](NC(=O)[C@H](N)c3ccc(O)cc3)C(=O)N2[C@H]1C(=O)O [AMOXICILLIN] | 18.7 | 19 | 17.3 | 16.6 | 15.5 | 16.3 | 16.6 | 13 | – | – | – | – | – | – | – |
| CC(C)c1nc(N2CCOCC2)c2cnn(-c3ccccc3)c2n1 | 14.6 | 14.4 | 14.2 | 14.3 | 10.6 | 11.3 | 10.3 | 11 | 100 | 92.5 | 77.6 | 6.9 | 2.6 | > 100 | > 100 |
| CCCCNc1nc(C(C)C)nc2c1cnn2-c1ccccc1 | 13.3 | 12.8 | 14.4 | 14.1 | 0 | 0 | 11 | 11 | 100 | 100 | 100 | 45.4 | > 100 | > 100 | > 100 |
| CCCCNc1nc(C)nc2c1cnn2-c1ccccc1 | 14.4 | 13.8 | 14.6 | 14.5 | 11 | 0 | 11.3 | 11.1 | 100 | 100 | 100 | -30 | 2.4 | > 100 | > 100 |
| CCNc1nc(C)nc2c1cnn2-c1ccccc1 | 13.4 | 13.3 | 13.3 | 13.3 | – | – | – | – | 100 | 100 | 99.6 | 29.2 | 38.7 | > 100 | > 100 |
| c1ccc(NCc2nc(Nc3ccccc3)c3cnn(-c4ccccc4)c3n2)cc1 | 13.3 | 13.6 | 13.2 | 13 | – | – | – | – | 100 | 100 | 99.7 | 48.5 | > 100 | > 100 | > 100 |
